Consider 1 compound from ChEMBL document CHEMBL4616634, “4β-Hydroxywithanolide E from Goldenberry (Whole Fruits of Physalis peruviana L.) as a Promising Agent against Chronic Obstructive Pulmonary Disease” (J Nat Prod, 2020).

Test [1] concerns Mus musculus. Kind of test: Antioxidant Activity in C57BL/6 mouse model of CS-induced pulmonary injury assessed as increase in SOD level in serum at 2 to 4 mg/kg, ip for 5 days. In kind it is functional, organism-based.
Test [2] addresses T1, Nuclear factor erythroid 2-related factor 2 (Homo sapiens) (UniProt Q16236).
T1 sequence (whole entry): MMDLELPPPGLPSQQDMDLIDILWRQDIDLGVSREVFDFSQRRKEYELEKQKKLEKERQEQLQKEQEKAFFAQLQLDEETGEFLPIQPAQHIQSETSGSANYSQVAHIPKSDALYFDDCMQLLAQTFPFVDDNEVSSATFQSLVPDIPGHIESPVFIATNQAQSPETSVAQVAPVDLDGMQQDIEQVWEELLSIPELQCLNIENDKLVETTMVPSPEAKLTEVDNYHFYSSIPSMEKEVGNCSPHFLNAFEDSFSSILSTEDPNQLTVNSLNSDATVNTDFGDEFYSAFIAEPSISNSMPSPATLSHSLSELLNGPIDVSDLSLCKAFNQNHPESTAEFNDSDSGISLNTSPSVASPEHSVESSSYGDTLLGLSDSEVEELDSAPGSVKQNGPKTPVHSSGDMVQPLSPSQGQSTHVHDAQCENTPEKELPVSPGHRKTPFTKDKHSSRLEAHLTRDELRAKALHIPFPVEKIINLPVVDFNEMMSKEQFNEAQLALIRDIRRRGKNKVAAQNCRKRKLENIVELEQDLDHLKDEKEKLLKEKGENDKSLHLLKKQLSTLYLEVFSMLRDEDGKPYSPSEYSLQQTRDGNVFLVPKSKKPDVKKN
The experiment in a line: Activation of Nrf2 in human BEAS2B cells assessed as increase in Nrf2 accumulation in nucleus at 1 uM incubated for 8 hrs by immunoblot analysis. Format: cell-based.

Test [3] concerns RAW264.7. The experiment in a line: Inhibition of LPS-induced iNOS protein expression in mouse RAW264.7 cells at 0.5 to 4 uM preincubated for 1 hr followed by LPS-stimulation and measured after 16 hrs by immunoblot analysis. Format: functional, cell-based. A general note: A western blot detects proteins with antibodies after separation by electrophoresis.
The species named for a further test is Danio rerio. Kind of test: Inhibition of LPS-induced ROS generation in AB zebra fish oxidative damage model incubated for 24 hrs by DCFH-DA staining based fluorescence assay. In kind it is functional, organism-based.
In test [4] the test system is Mus musculus. The experiment in a line: Antiinflammatory activity in C57BL/6 mouse model of CS-induced pulmonary injury assessed as reduction in distinct infiltration of leukocytes in lungs at 2 to 4 mg/kg, ip for 5 days by hematoxylin and eosin staining based fluorescence microscopic analysis. Format: functional, organism-based.
The target of test [5] is T1, Nuclear factor erythroid 2-related factor 2 (Homo sapiens). The experiment in a line: Activation of Nrf2 in human BEAS2B cells assessed as increase in NQO1 protein expression incubated for 12 hrs by immunoblot analysis. Format: cell-based.
Test [6] has the same target. Kind of test: Activation of Nrf2 in human BEAS2B cells assessed as increase in Nrf2 mRNA expression at 0.5 to 2 uM incubated for 24 hrs by qRT-PCR analysis. In kind it is cell-based. (Quantitative PCR measures a nucleic acid by following its amplification.)
For test [7] the target is unchanged. Kind of test: Activation of Nrf2 in human BEAS2B cells assessed as increase in Keap1 protein expression at 5 uM incubated for 24 hrs by immunoblot analysis. Format: cell-based.
For test [8] the target is unchanged. Kind of test: Activation of Nrf2 in human BEAS2B cells assessed as increase in GCLM mRNA expression at 0.5 to 2 uM incubated for 24 hrs by qRT-PCR analysis. Format: cell-based.
Test [9] has as its system Mus musculus. The experiment in a line: Antiinflammatory activity in C57BL/6 mouse model of CS-induced pulmonary injury assessed as increase in Nrf2 protein expression in lungs at 2 to 4 mg/kg, ip for 5 days by immunoblot analysis. In kind it is functional, organism-based.
The next test concerns BEAS-2B. Kind of test: Antioxidant activity in human BEAS2B cells assessed as increase in GSH level incubated for 24 hrs. Format: functional, cell-based.
For test [10], the target named is T1, Nuclear factor erythroid 2-related factor 2 (Homo sapiens). Kind of test: Activation of Nrf2 in human BEAS2B cells assessed as increase in Nrf2 protein level incubated for 12 hrs by immunoblot analysis. In kind it is cell-based.
The target is the same in test [11]. Kind of test: Activation of Nrf2 in human BEAS2B cells assessed as increase in luciferase activity at 0.25 to 2 uM incubated for 18 hrs by dual luciferase reporter gene assay. In kind it is cell-based. For orientation: Reporter assays use an easily measured gene product as a stand-in for the process of interest.
The subject of test [12] is Mus musculus. Kind of test: Antiinflammatory activity in C57BL/6 mouse model of CS-induced pulmonary injury assessed as reduction in IL-1beta protein expression in lungs at 2 to 4 mg/kg, ip for 5 days by ELISA. Format: functional, organism-based.
In test [13] the test system is RAW264.7. The experiment in a line: Inhibition of LPS-induced TNFalpha protein expression in mouse RAW264.7 cells at 0.5 to 4 uM preincubated for 1 hr followed by LPS-stimulation and measured after 16 hrs by immunoblot analysis. In kind it is functional, cell-based.
For test [14], the target named is T1, Nuclear factor erythroid 2-related factor 2 (Homo sapiens). The experiment in a line: Activation of Nrf2 in human BEAS2B cells assessed as increase in KEAP1 protein expression at 0.25 to 2 uM incubated for 12 hrs by immunoblot analysis. Format: cell-based.
The target is the same in test [15]. The experiment in a line: Activation of Nrf2 in human MDA-MB-231 cells assessed as increase in ARE luciferase activity at > 4 uM incubated for 16 hrs by luciferase reporter gene assay. Format: cell-based.
Test [16] concerns RAW264.7. Kind of test: Inhibition of LPS-induced IL-6 protein expression in mouse RAW264.7 cells at 0.5 to 4 uM preincubated for 1 hr followed by LPS-stimulation and measured after 16 hrs by immunoblot analysis. Format: functional, cell-based.
Test [17] concerns the target T1, Nuclear factor erythroid 2-related factor 2 (Homo sapiens). Kind of test: Activation of Nrf2 in human BEAS2B cells assessed as increase in NQO1 mRNA expression at 0.5 to 2 uM incubated for 24 hrs by qRT-PCR analysis. In kind it is cell-based.
The test system of test [18] is Mus musculus. Kind of test: Antiinflammatory activity in C57BL/6 mouse model of CS-induced pulmonary injury assessed as decrease in NFkappaB p65 protein expression in lungs at 2 to 4 mg/kg, ip for 5 days by immunoblot analysis. Format: functional, organism-based.
Test [19] relates to RAW264.7. Kind of test: Inhibition of LPS-induced IL-6 mRNA expression in mouse RAW264.7 cells at 0.5 to 4 uM preincubated for 1 hr followed by LPS-stimulation and measured after 6 hrs by qRT-PCR analysis. Format: functional, cell-based.
In test [20] the test system is RAW264.7. The experiment in a line: Inhibition of LPS-induced IL-1beta protein expression in mouse RAW264.7 cells at 0.5 to 4 uM preincubated for 1 hr followed by LPS-stimulation and measured after 16 hrs by immunoblot analysis. In kind it is functional, cell-based.
Test [21] concerns the target T1, Nuclear factor erythroid 2-related factor 2 (Homo sapiens). The experiment in a line: Activation of Nrf2 in human BEAS2B cells assessed as increase in Keap1 mRNA expression at 0.5 to 2 uM incubated for 24 hrs by qRT-PCR analysis. Format: cell-based.

SMILES strings stand for the structures. Active and inactive are the calls of the source. The rule behind the calls is not given here.

With `CC1=C(C)C(=O)O[C@H]([C@](C)(O)[C@]2(O)CC[C@@]3(O)[C@@H]4C[C@H]5O[C@]56[C@@H](O)C=CC(=O)[C@]6(C)[C@H]4CC[C@]23C)C1`, the result (in the test on Mus musculus [1]; in test [2]; with Mus musculus [4]; in test [6]; in test [8]; in the test on Mus musculus [9]) was Active. For the same compound, the result (in the test with BEAS-2B; in [11]; in the test on Mus musculus [12]; in [17]; in the test on Mus musculus [18]) was Active. Moreover, the inhibition result in the test with RAW264.7 [3], in the test on RAW264.7 [13], in the test on RAW264.7 [16], in the test on RAW264.7 [19] and with RAW264.7 [20] was “Active” in each case. The inhibition result in the test listed under Danio rerio was “Dose-dependent effect”. The Activity result in test [5] and in test [10] was “Dose-dependent effect” each time. The result in [7], in test [14], in [15] and in test [21] was inactive.
